For test [1], the system named is library of 8,380 IKZF3 degrons (ZF-eGFP/mCherry reporter) in Jurkat cells. Kind of test: Pooled library screen (FACS, NGS, limma voom LogFC of positive vs negative read counts). The test is classed as cell-based, human. To be noted: WT ZF sequence. As to the method: A library of 8,380 IKZF3 degrons was cloned into pLVX-Sprout to create the eGFP/mCherry protein degradation reporter plasmid pool. A lentivirus pool was then generated using the Lenti-X lentiviral vector production method.
Jurkat cells were transduced at a multiplicity of infection of <0.3 with the lentivirus vector library in order to maximise the number of cells with a single integration. Transductions were carried out in 6 well TC-treated cell culture dishes (Falcon) with 3×10^6 cells per well. Cells were incubated for 2 days at 37° C. and 5% CO2 before the supernatant was removed and replaced with fresh media. 6 days post-transduction, mCherry+ cells were isolated via FACS using the FACS Aria Fusion (BD) in a buffer containing PBS (Gibco), 2 mM EDTA (Gibco), 25 mM HEPES (Sigma) and 1% BSA (Sigma). 8 days later, cells were treated with DMSO or a thalidomide analog for 18 hours at 37° C. and 5% CO2. mCherry+GFPlow and NOT(mCherry+GFPlow) cells were sorted by FACS using the FACS Aria Fusion (BD). DMSO treated cells were used to set the mCherry+GFPlow gate and dead cells were excluded from sorting by staining cells with 1 μg/mL DAPI (ThermoFisher). gDNA was isolated using the Maxwell RSC 48 (Promega). gDNA from cells that were unsorted and untreated were also isolated to determine the library representation on the day of compound treatment. Throughout the screen >600× coverage of the library was maintained. 3 biological replicates were carried out with a new transduction taking place each time.
A two-step PCR was used where the first PCR (PCR1) amplified the integrated degron sequence from gDNA and the second PCR (PCR2) added Illumina adaptors and barcodes to permit multiplexing. See Supp F for PCR1 and PCR2 primers. Q5 Hot Start High-Fidelity 2× Master Mix (New England Biolabs) was used for both PCRs. Sufficient gDNA was amplified in PCR1 in order to maintain >600× coverage and amplicons were purified using solid phase reversible immobilization (SPRI) beads (Beckman Coulter). Purified PCR1 products were analysed on the Tapestation 4200 (Agilent) to confirm purity prior to proceeding to PCR2. Sufficient PCR1 product was amplified in PCR2 in order to maintain >600× coverage and amplicons were run on a 2% agarose TAE gel. Target bands were excised and purified using the NucleoSpin Gel and PCR Clean-up Kit (Machery Nagel). Amplicons were analysed on the Tapestation 4200 and quantified using Qubit dsDNA HS kit (ThermoFisher). PCR products were pooled and sequenced as paired-reads on the NovaSeq (Illumina) using a SP2 200 cycles kit (Illumina).
Count distributions, percentage of read mapping, library coverage and replicate correlation per sample were assessed for QC purposes.
To carry out the library screen, we used the same plasmid construct as in our earlier flow cytometry assays, but pooling all 8,380 mutants together into one Jurkat population, ensuring a copy number of one plasmid per cell (FIG. 4B). […] These GFP-negative cells were then separated from the remaining GFP-positive population using fluorescence activated cell sorting (FACS). These two populations were then sequenced and the relative abundance of every mutant in both populations compared to provide a log FC value for each mutant sequence. This value indicated how frequently a sequence is observed in the GFP-negative population relative to the GFP-positive population, and therefore how effective a degron it is for that particular IMID compound.

The target in another test is wild type IKZF3 (Homo sapiens, UniProt Q96SW2+Q9UKT9). Kind of test: GFP degradation assay (plate reader), WT. The test is classed as cell-based. To be noted: background autofluorescence subtracted. On the procedure:
(§1) Jurkat cells were added to 96 well U-bottom assay plates (Falcon) at 1×10^5 cells per well and treated with compounds for 18 hours at 37° C. and 5% CO2. Cells were stained with 1 μg/mL DAPI (ThermoFisher) and acquired on a Cytoflex S (Beckman Coulter). Data was analysed using FlowJo 10.8.1 (BD).
(§2) The compounds were assessed in GFP degradation assays as described above. (Data shown in FIG. 19 was obtained using a plate reader leading to a degree of background autofluorescence). The data in FIG. 19 indicates the inflection point—at which range of concentrations the degradation occurs—for each compound. DC50 and selectivity values (following subtraction of background autofluorescence) were acquired. Compound C01 degrades both wild type IKZF3 and WEIS mutant (Q147W N149E Q150I).

In test [2] the target is WEIS mutant (Q147W N149E Q150I) (Homo sapiens, UniProt Q96SW2+Q9UKT9, N149E/Q147W/Q150I). The test is described as follows: GFP degradation assay (plate reader), WEIS. The test is classed as cell-based. Particulars: background autofluorescence subtracted. As to the method:
as §1, §2

Sequence of WEIS mutant (Q147W N149E Q150I) (Q9UKT9 130-189 Q147W/N149E/Q150I): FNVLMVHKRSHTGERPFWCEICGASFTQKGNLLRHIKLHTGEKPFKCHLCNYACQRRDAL
Sequence of WEIS mutant (Q147W N149E Q150I) (Q96SW2 whole entry): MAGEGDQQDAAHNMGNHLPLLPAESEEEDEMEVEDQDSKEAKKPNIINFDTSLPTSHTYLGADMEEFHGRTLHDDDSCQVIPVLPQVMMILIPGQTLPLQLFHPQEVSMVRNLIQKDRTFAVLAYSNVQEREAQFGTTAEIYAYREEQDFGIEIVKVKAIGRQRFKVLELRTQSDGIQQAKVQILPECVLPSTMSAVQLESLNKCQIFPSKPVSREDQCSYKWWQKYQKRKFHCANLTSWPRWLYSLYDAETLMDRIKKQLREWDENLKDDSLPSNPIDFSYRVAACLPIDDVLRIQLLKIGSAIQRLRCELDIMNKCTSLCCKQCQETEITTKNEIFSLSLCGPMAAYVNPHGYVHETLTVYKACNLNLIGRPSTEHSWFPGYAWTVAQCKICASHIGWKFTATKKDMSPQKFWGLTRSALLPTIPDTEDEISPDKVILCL
Sequence of wild type IKZF3 (Q9UKT9 130-189): as the sequence (Q9UKT9 130-189 Q147W/N149E/Q150I) above, with W18Q, E20N, I21Q counted along it
Sequence of wild type IKZF3 (Q96SW2 whole entry): as the sequence (Q96SW2 whole entry) above

For the molecule `O=C1CCC(N2C(=O)c3ccccc3C2=O)C(=O)N1` (stereo not drawn) [thalidomide, reference compound], the “position of the WT sequence in the volcano plot of the library screen” value in test [1] is on record as “close to the ‘hits’ region”.
`CN1CCN(c2ccc3c(c2)CN(C2CCC(=O)NC2=O)C3=O)CC1` (stereo not drawn) [C01]: the “degradation of wild type IKZF3” value at wild type IKZF3 is given as “degrades”. Further, the “degradation of WEIS mutant” value in test [2] is “degrades”.

The values above are taken from patent US20260284208A1, “SYSTEM” (Oxford University Innovation Limited, priority 2023, published 2026).
